Source: patent publication US10940144B2, “Drug containing pyridylaminoacetic acid compound” (priority 2017, dated 2021)

Columns and labels:
retinal blood vessels = assay: Pharmacological Test 1: retinal vasodilatory action (retinal vascular diameter from fundus images) after intravitreal administration to rabbits; assay type: in vivo, rabbit; settings: for Base-Corrected Retinal Vascular Diameter Change Rate (%) 1 Hour After Administration / Base-Corrected Retinal Vascular Diameter Change Rate (%) 2 Hours After Administration / Base-Corrected Retinal Vascular Diameter Change Rate (%) 6 Hours After Administration / Base-Corrected Retinal Vascular Diameter Change Rate (%) 24 Hours After Administration: 20 μL intravitreal single injection, pigmented rabbits
Procedure: In order to find a new medicinal use of omidenepag, an ester thereof, or a salt thereof, the retinal vasodilatory action in the case of administering omidenepag to rabbits was examined. Omidenepag at 4.01 mg was dissolved in dimethyl sulfoxide to a total volume of 129 μL. Of the total volume, 10 μL was added and dissolved into physiological saline, and an appropriate amount of sodium hydroxide solution was added to adjust the pH of the formulation to 6.2. Thereafter, physiological saline was further added to a total volume of 10 mL to obtain omidenepag sample 1 (containing 0.00311% (w/v) (31.1 μg/mL) of omidenepag). In addition, the base A was added to 0.1 mL of omidenepag sample 1 to a total volume of 10 mL, and omidenepag sample 2 was obtained (containing 0.0000311% (w/v) (0.311 μg/mL) of omidenepag). CP-544326 (EP2 agonist) at 5.98 mg was dissolved in dimethyl sulfoxide to a total volume of 192 μL. Of the total volume, 10 μL was added and dissolved into physiological saline, and sodium hydroxide solution was added to adjust the pH of the formulation to 6.5. Thereafter, physiological saline was further added to a total volume of 10 mL to obtain CP-544326 sample 1 (containing 0.00311% (w/v) (31.1 μg/mL) of CP-544326). In addition, the base A was added to 0.1 mL of CP-544326 sample 1 to a total volume of 10 mL, and CP-544326 sample 2 was obtained (containing 0.0000311% (w/v) (0.311 μg/mL) of CP-544326). The base A, omidenepag samples 1 and 2, and CP-544326 samples 1 and 2 as test compound solutions, each at 20 μL, were administered intravitreally (injection, single time) to examine the change in retinal vascular diameter. In addition, pigmented rabbits (strain: Dutch, sex: male, three animals per group) were used as experimental animals. 1) After holding the above experimental animals, one drop (about 0.03 mL) of a 0.4% tropicamide ophthalmic solution (trade name: Mydrin-M ophthalmic solution 0.4%) was instilled into the retinal vascular diameter measurement eye to fully dilate the pupil. Thereafter, fundus images of the measurement eyes were captured, and the retinal vascular diameters and the like immediately before administration were measured from the obtained fundus images. 2) One drop (about 0.03 mL) of a 0.4% oxybuprocaine hydrochloride ophthalmic solution (trade name: Benoxil ophthalmic solution 0.4%) was instilled into the retinal vascular diameter measurement eye of each experimental animal for local anesthesia. Thereafter, a microsyringe connected with a 30 G injection needle was used to administer 20 μL of each test compound solution into the vitreous body. 3) At 1 hour, 2 hours, 6 hours, and 24 hours after administration of each test compound solution, fundus images of the retinal vascular diameter measuring eyes were captured, and the retinal vascular diameters and the like were measured from the obtained fundus images. (a) The fundus images captured immediately before the administration, 1 hour, 2 hours, 6 hours, and 24 hours after the administration were used to measure, as the vascular diameters, (i) the vascular diameter of the retinal artery on the nose side, (ii) the vascular diameter of the retinal artery on the ear side, and (iii) the optic nerve head diameter (longitudinal diameter passing through the center of the optic nerve head). (b) The average value of (i) the vascular diameter of the retinal artery on the nose side and (ii) the vascular diameter of the retinal artery on the ear side measured from the fundus images for each time period was divided by (iii) the optic nerve head diameter to calculate the corrected retinal vascular diameter. […]

[1] = test system: optic nerve head tissue blood flow; assay: Pharmacological Test 3: optic nerve head tissue blood flow (laser speckle flowgraphy) after intravitreal administration to rabbits; assay type: in vivo, rabbit
Procedure: In order to find anew medicinal use of omidenepag, an ester thereof, or a salt thereof, the action of increasing tissue blood flow in the optic nerve head in the case of administering omidenepag to rabbits was examined.
Omidenepag at 3.99 to 4.03 mg was dissolved in dimethyl sulfoxide to a total volume of 128 to 130 μL. Of the total volume, 10 μL was added and dissolved into physiological saline, and an appropriate amount of sodium hydroxide solution was added to adjust the pH of the formulation to 6.3 to 7.2. Thereafter, physiological saline was further added to a total volume of 10 mL to obtain omidenepag sample 3 (containing 0.00311% (w/v) (31.1 μg/mL) of omidenepag).
The base C and omidenepag sample 3 as test compound solutions, each at 20 μL, were administered intravitreally (injection, single time) to examine the change in optic nerve head tissue blood flow. In addition, pigmented rabbits (strain: Dutch, sex: male, three animals per group) were used as experimental animals. […]
3) At 1 hour and 2 hours after administration of each test compound solution, the optic nerve head tissue blood flow of the optic nerve head tissue blood flow measurement eye was measured.
(a) The ratio of the optic nerve head tissue blood flow after passage of each of the time periods of 1 hour and 2 hours after administration to the optic nerve head tissue blood flow immediately before administration (optic nerve head tissue blood flow change rate (%)) was calculated. […]
(b) For each time period after administration, the difference (base-corrected optic nerve head tissue blood flow change rate (%)) was calculated between the optic nerve head tissue blood flow change rate (%) of the group administered with the base C simultaneously carried out and the optic nerve head tissue blood flow change rate (%) of the group administered with omidenepag sample 3. […]

Row | Compound | Base-Corrected Retinal Vascular Diameter Change Rate (%) 1 Hour After Administration (retinal blood vessels; 0.0000311% (w/v) (0.311 μg/mL)) [%] | Base-Corrected Retinal Vascular Diameter Change Rate (%) 2 Hours After Administration (retinal blood vessels; 0.0000311% (w/v) (0.311 μg/mL)) [%] | Base-Corrected Retinal Vascular Diameter Change Rate (%) 6 Hours After Administration (retinal blood vessels; 0.0000311% (w/v) (0.311 μg/mL)) [%] | Base-Corrected Retinal Vascular Diameter Change Rate (%) 24 Hours After Administration (retinal blood vessels; 0.0000311% (w/v) (0.311 μg/mL)) [%] | Base-Corrected Retinal Vascular Diameter Change Rate (%) 1 Hour After Administration (retinal blood vessels; 0.00311% (w/v) (31.1 μg/mL)) [%] | Base-Corrected Retinal Vascular Diameter Change Rate (%) 2 Hours After Administration (retinal blood vessels; 0.00311% (w/v) (31.1 μg/mL)) [%] | Base-Corrected Retinal Vascular Diameter Change Rate (%) 6 Hours After Administration (retinal blood vessels; 0.00311% (w/v) (31.1 μg/mL)) [%] | Base-Corrected Retinal Vascular Diameter Change Rate (%) 24 Hours After Administration (retinal blood vessels; 0.00311% (w/v) (31.1 μg/mL)) [%] | Base-Corrected Optic Nerve Head Tissue Blood Flow Change Rate (%) 1 Hour After Administration ([1]; 0.00311% (w/v) (31.1 μg/mL), 20 μL intravitreal single injection, pigmented rabbits, 1 hour) [%] | Base-Corrected Optic Nerve Head Tissue Blood Flow Change Rate (%) 2 Hours After Administration ([1]; 0.00311% (w/v) (31.1 μg/mL), 20 μL intravitreal single injection, pigmented rabbits, 2 hours) [%] | blood flow increasing action, optic nerve head (in words) ([1]; intravitreal administration, rabbits) | retinal vasodilatory action compared with CP-544326 (in words) (retinal blood vessels; at the same concentration, intravitreal, rabbits)
1 | O=C(O)COc1cccc(CN(Cc2ccc(-n3cccn3)cc2)S(=O)(=O)c2cccnc2)c1 [CP-544326, reference compound] | 14.8 | 9.0 | 0.8 | 3.5 | 48.4 | 57.5 | 72.2 | 3.7 |  |  |  | 
2 | O=C(O)CNc1cccc(CN(Cc2ccc(-n3cccn3)cc2)S(=O)(=O)c2cccnc2)n1 [Omidenepag, (6-{[4-(pyrazol-1-yl)benzyl](pyridin-3-ylsulfonyl)aminomethyl}pyridin-2-ylamino)acetic acid] | 35.8 | 35.4 | 22.3 | 2.9 | 81.2 | 71.9 | 88.1 | 11.8 | 343.6 | 327.8 | significantly strong blood flow increasing action | significantly stronger retinal vasodilatory action
